The record followed here is BindingDB's records for doi:10.7270/Q2891498 (Nmmlsc, 2009).

Structures are written as SMILES.

This experiment addresses T1, GTPase KRas [1-37] (Homo sapiens, UniProt G3V5T7).
T1 construct: 1-37
Put plainly: Ras wt fluorescent nucleotide binding blockade – biochemical, additional analogs, wildtype, multiplex flow cytometry, Ki, SAR follow-up (AID 2038). (In general: A flow cytometer gives signals particle by particle.)

T1 sequence (G3V5T7 whole entry): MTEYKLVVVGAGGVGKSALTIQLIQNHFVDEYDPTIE

For orientation: Ki means the equilibrium dissociation constant of an inhibitor or competing ligand from its target. A lower Ki goes with tighter binding. Turning to `O=C1N=c2c(Br)cccc2=C1c1[nH]c2ccccc2c1NO` [7-bromanyl-3-[3-(oxidanylamino)-1H-indol-2-yl]indol-2-one], the Ki is 5.85 µM. This counts as single-digit micromolar.
